pIC50: −log10 of the molar value. Where two headings read alike, the source gives them in different places.

Data set [1] has as its system mm006. Description: Inhibition of mammary carcinoma cell line mm006. The conditions noted are these: Mus musculus, read-out: IC50 (uM), mm006. In kind it is cell-based, mouse (C57BL/6). As to the method: (§1) 3-(4,5-Dimethylthiazol-2-yl)-2,5-diphenyltetrazolium Bromide (MTT) Cell Proliferation Assay. To cells grown in 96-well-tissue culture plate, 20 μl/well of MTT solution (5 mg/ml in PBS) was added. After 1-2 hours incubation at 37° C., the plate was centrifuged. Supernatant was discarded and 100 μl DMSO was added to dissolve water insoluble formazan, and the absorbance was read at 540 nm with a plate reader.

In data set [2] the test system is T47D. Briefly: Inhibition of mammary carcinoma cell line T47D. The format is cell-based. The conditions noted are these: Table 5, human, ERα+, HER2−. How it is done: as §1
The subject of data set [3] is MDA-MB-231. Briefly: Inhibition of mammary carcinoma cell line MDA-MB-231. In kind it is cell-based. The conditions noted are these: Table 5; MDA-MB-231, human, Basal, HER2−. As to the method: as §1
In data set [4] the test system is LR/FR MCF7A1C cells. Briefly: Crystal violet cell proliferation assay, LR,FR-MCF7AC1. The format is cell-based, human. The conditions noted are these: for pIC50: Homo sapiens, read-out: IC50, LR/FR MCF7A1C cells. How it is done:
Derivation process of LR-FR- and LR-FR-PR resistant MCF7AC1 cells. The letrozole-resistant MCF7AC1 cell line (LR-MCF7AC1) was generated in vivo from the aromatase-expressing MCF7A C1 tumor-bearing athymic female nude mice that received letrozole therapy (10 μg/day, five days a week) over a period of 27 weeks. To facilitate tumor growth mice also received the estrogen precursor androstenedione (100 μg/day, five days a week), which is intratumorally converted by aromatase into estradiol (Yue W, et al. Cancer Res. 1994; 54(19):5092-5). With the emergence of the letrozole resistant tumors, these tumors were harvested from in vivo and the LR-MCF7AC1 cell line was established in vitro (Jayaraman S., et al. Breast Cancer Res. 2020; 22(1):51), where the cells grew in phenol-red free IMEM+10% FBS media containing antibiotics.
In a second in vivo study, the LR-MCF7AC1 tumor-bearing athymic female nude mice were randomized to multiple endocrine therapies including fulvestrant therapy (1000 μg/day, five days a week). One mouse harboring the LR-MCF7AC1 tumor began to develop resistance to fulvestrant therapy at 31 weeks of treatment. This fulvestrant-resistant LR-MCF7AC1 tumor was harvested from mice and reimplanted into mice for two successive generations. The 2nd generation tumor was harvested from in vivo and the LR,FR-MCF7AC1 cell line was established in vitro, where the cells grew in phenol-red free IMEM+10% FBS media containing antibiotics.
Cell proliferation assay: The cells mentioned in this study were seeded in 96 wells-plates (2000-4000 cells/well) and treated 24 hours later with DMSO (vehicle control), HCB or HBB drugs at the indicated concentrations. 72 hours later, the cells were fixed in situ with 25% (v/v) glutaraldehyde, followed by staining with 0.52% crystal violet (CV) in 25% methanol (Fisher Chemical). The CV stained plates were solubilized in 100 mM sodium citrate in 50% ethanol solution and absorbance of the stain measured at 550 nm using a plate reader. Each data point represents mean±SD, obtained from six wells per treatment performed in biological triplicates. […]

The test system of data set [5] is SARS-CoV-2. Description: SARS-CoV-2 antiviral assay in Vero cells. The format is cell-based. The conditions noted are these: Severe acute respiratory syndrome coronavirus 2, Vero cells, FIG. 11; for pIC50: read-out: antiviral IC50; for IC90: read-out: antiviral IC90.
Data set [6] deals with SARS-CoV-2. Description: microbe, parasite or virus in culture. The format is cell-based. Particulars: Severe acute respiratory syndrome coronavirus 2, 293T/ACE2, FIG. 12; for pIC50: read-out: antiviral IC50; for IC90: read-out: antiviral IC90.
The nature of data set [7]: Microsomal stability, human liver microsomes. The conditions noted are these: for parent metabolite peak area after 60 min: 10 μM, human liver microsomes 1 mg/mL, NADPH 2 mM, 37° C.; for degradation pathways: human or mouse liver microsomes. The format is in vitro ADME. How it is done:
Microsomal stability of HBB and HCB were evaluated in human and mouse liver microsomes. 10 μM of HBB or HCB was tested in a biological matrix comprising of human or mouse liver microsomes (1 mg/mL) (Table 6). NADPH (2mM) was added as a cofactor. Total volume was 200 μL.
HBB or HCB was incubated for 0, 30, or 60 min at 37° C. Incubations were quenched with 2 volumes of acetonitrile followed by centrifugation for 10 min at 16,000 g.
A general note: Liver microsomes are a subcellular fraction often used to study metabolism.

A short description of data set [8]: in vitro. Particulars: African green monkey, Vero E6 cells.
The subject of data set [9] is Vero cells. Briefly: Cytotoxicity assay in Vero cells.

As usually defined, the IC50 is the point on the concentration scale where inhibition reaches its midpoint. What is called IC90 is the concentration needed for an effect of 90%. A word on the CC50: it is the concentration at which the toxic effect on the cells reaches its halfway point. For the molecule `CCCCCCNC(=N)NC(=N)NCc1ccccc1` [HBB, N1-hexyl-N5-benzyl-biguanide], the figures for the IC50 in [1], in data set [2] and in data set [3] were 38.5 µM, 22 µM and 18.5 µM, respectively. In addition, the figures for the pIC50 in [4] (72 h), in data set [5] and in [6] were 5.41, below 4.70 and 6.09, respectively. Further, the IC90 in data set [5] was above 20 µM; in data set [6], 11.3 µM. For the same molecule, the “parent metabolite peak area after 60 min” value in [7] came to 19.19%. Moreover, the degradation pathways result in data set [7] was “oxidation, dehydrogenation, and glucuronidation”. In addition, the CC50 at 48 h in data set [8] was above 20 µM. Besides, the CC10 in [9] worked out at 0.091 µM.

`CCCCCCNC(=N)NC(=N)NCC12C3C4C5C3C1C5C42` (stereo not drawn) [HCB, Hexyl Cubanomethyl Biguanide]: the IC50 in [1] (Table 5, mm006, C57BL/6, Basal) worked out at 16.9 µM; in [3], 15.4 µM. In addition, the pIC50 in data set [4] (letrozole- and fulvestrant-resistant, 72 hours, crystal violet) was 5.89; in data set [5] it was 4.81; in data set [6] it was 6.15. Further, the “fold increase in sensitivity, HCB vs HBB” value in data set [4] (LR/FR and LR/FR/PR MCF7A1C cells) was around 3 fold. Further, the results for the IC90 in [5] and in data set [6] were 19.6 µM and 4.8 µM, respectively. The “parent metabolite peak area after 60 min” value in data set [7] is 48.18%. For the same molecule, in data set [7], the degradation pathways result is “oxidation, dehydrogenation, and hydrogenation”. The molecule further had a CC50 at 48 h in [8] of 13.3 µM. This molecule also registered a CC10 in [9] of 0.201 µM.

(Values after patent US20240067603A1, “CUBANYL BIGUANIDE COMPOUNDS” (REGENTS OF THE UNIVERSITY OF MINNESOTA, priority 2020, published 2024).)
